Assay results taken from patent US20260226084A1, “DUAL RAF AND TUBULIN INHIBITORS AND METHODS OF USE THEREOF” (Deciphera Pharmaceuticals, LLC, priority 2023, published 2026).
Read-outs that look alike come from different tables or passages of the source.

Tests used:
HPAF-II cells = assay: HPAF-II Cell Proliferation Assay; assay type: cell-based; settings: HPAF-II cells, Table 2, read-out: Inhibition of cell proliferation in HPAF-II (IC50 class)
Outline: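 Viability read-out was resazurin fluorescence (540 nm excitation, 600 nm emission), developed 18–24 h after a 115–120 h compound exposure of 750 HPAF-II cells per well in MEM/10% FBS at 37 °C. Compound was tested as a serial dilution in triplicate, and IC50 values were calculated.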

[1] = target: T1, B-Raf kinase (SEQ ID NO: 1) (Homo sapiens, UniProt P15056); assay: Biochemical Assay for B-Raf (coupled pyruvate kinase/lactate dehydrogenase assay); settings: 1 mM ATP; read-out: BRAF (inhibition of biochemical activity, IC50)
T1 construct: GST (N); purchased Sigma

[2] = target: T2, C-Raf kinase (SEQ ID NO: 2) (Homo sapiens, UniProt P04049, Y340D/Y341D); assay: Biochemical Assay for C-Raf (coupled pyruvate kinase/lactate dehydrogenase assay); settings: 1 mM ATP; read-out: CRAF (inhibition of biochemical activity, IC50)
T2 construct: C-Raf residues 306-end; Y340D, Y341D with; GST (N); purchased Sigma

MiaPaca-2 cells = assay: MiaPaca-2 Cell Proliferation Assay; assay type: cell-based; settings: Table 2, read-out: Inhibition of cell proliferation in MiaPaca-2 (IC50 class)
Outline: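 Viability was read as resazurin fluorescence (540 nm excitation, 600 nm emission) after 5–6 h with dye. Compounds were tested as serial dilutions in triplicate, with IC50 derived from the dose–response.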

HCT-116 cells = assay: HCT-116 Cell Proliferation Assay; assay type: cell-based; settings: Table 2, read-out: Inhibition of cell proliferation in HCT-116 (IC50 class)
Outline: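 IC50 values come from resazurin fluorescence (540 nm excitation, 600 nm emission) added for 4 to 5 h after compound treatment. Treatment: serially diluted compound in triplicate on 375 HCT-116 cells per well in complete McCoy's 5A/10% FBS, 67 to 72 hours, 37 °C, 5% CO2.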

Pa16c cells = assay: Pa16c Cell Proliferation Assay; assay type: cell-based; settings: Table 2, read-out: Inhibition of cell proliferation in Pa16c (IC50 class)
Outline: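 Proliferation read-out: resazurin fluorescence (540 nm excitation, 600 nm emission) after an extra 18 to 24 h. Before that, compound dilution series (triplicate) stayed on 750 Pa16c cells/well in complete DMEM/10% FBS for 67 to 72 h at 37° C. IC50 values derived from the curves.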

[3] = Homo sapiens, MIA PaCa-2, MiaPaca-2 cells
[4] = Homo sapiens, HCT-116, HCT-116 cells

T2 sequence (P04049 307-648 Y340D/Y341D): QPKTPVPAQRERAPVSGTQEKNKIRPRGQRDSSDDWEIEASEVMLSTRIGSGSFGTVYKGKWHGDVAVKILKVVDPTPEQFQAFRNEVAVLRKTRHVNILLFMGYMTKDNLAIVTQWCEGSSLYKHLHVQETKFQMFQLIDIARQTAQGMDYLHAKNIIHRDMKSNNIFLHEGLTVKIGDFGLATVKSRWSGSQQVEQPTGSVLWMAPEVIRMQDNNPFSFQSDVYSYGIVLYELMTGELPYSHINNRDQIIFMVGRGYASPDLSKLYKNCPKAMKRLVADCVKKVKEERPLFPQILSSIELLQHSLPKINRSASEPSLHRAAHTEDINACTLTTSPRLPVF
T1 sequence (P15056 416-766): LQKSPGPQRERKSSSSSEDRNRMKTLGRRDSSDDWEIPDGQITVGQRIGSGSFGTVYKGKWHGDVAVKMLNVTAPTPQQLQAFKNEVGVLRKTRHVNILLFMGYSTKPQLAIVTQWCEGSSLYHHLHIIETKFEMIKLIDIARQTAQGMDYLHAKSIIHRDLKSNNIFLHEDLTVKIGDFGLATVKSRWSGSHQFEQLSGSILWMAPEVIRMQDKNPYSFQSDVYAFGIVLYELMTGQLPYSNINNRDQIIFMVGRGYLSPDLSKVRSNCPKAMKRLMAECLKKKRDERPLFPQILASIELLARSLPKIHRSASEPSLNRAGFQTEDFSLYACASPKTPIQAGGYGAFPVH

Compound | IC50 [1] | IC50 [2] | IC50 (MiaPaca-2 cells; [3]) | IC50 (HCT-116 cells; [4]) | IC50 (MiaPaca-2 cells; MiaPaca-2 cells) | IC50 (HCT-116 cells; HCT-116 cells) | IC50 (HPAF-II cells; Homo sapiens, HPAF-II) | IC50 (Pa16c cells) | IC50 (HPAF-II cells)
Cc1ccc(NC(=O)c2ccc(C(F)(F)F)nc2)cc1-c1ccnc(-c2ccnc(NC(=O)C3CC3)c2)c1 [Example 79] | < 100 nM | < 100 nM | – | – | 100 to 500 nM | 100 to 500 nM | – | 100 to 500 nM | 100 to 500 nM
Cc1cc(-c2cc(NC(=O)c3cncc(C(F)(F)F)c3)ccc2C)cc(-c2ccnc(NC(=O)C3CC3)c2)n1 [Example 81] | < 100 nM | < 100 nM | – | – | 1000 to 10000 nM | 100 to 500 nM | – | 1000 to 10000 nM | 1000 to 10000 nM
Cc1ccc(NC(=O)c2cccnn2)cc1-c1ccnc(-c2ccnc(NC(=O)C3CC3)c2)c1 [Example 83] | 1000 to 10000 nM | 100 to 500 nM | 1000 to 10000 nM | 1000 to 10000 nM | – | – | 1000 to 10000 nM | 1000 to 10000 nM | –
Cc1ccc(NC(=N)c2cc(C(F)(F)F)cnn2)cc1-c1ccnc(-c2ccnc(NC(=O)C3CC3)c2)c1 [Example 86] | 100 to 500 nM | < 100 nM | 1000 to 10000 nM | 1000 to 10000 nM | – | – | 1000 to 10000 nM | 1000 to 10000 nM | –
Cc1ccc(NC(=O)c2cc(C(F)(F)F)cnn2)cc1-c1ccnc(-c2ccnc(NC(=O)CC3(C)CC3)c2)c1 [Example 90] | 100 to 500 nM | 100 to 500 nM | 100 to 500 nM | 100 to 500 nM | – | – | 100 to 500 nM | 1000 to 10000 nM | –
CC(=N)Nc1cc(-c2cc(-c3cc(NC(=O)c4cc(C(F)(F)F)cnn4)ccc3C)ccn2)ccn1 [Example 91] | 100 to 500 nM | 100 to 500 nM | 500 to 1000 nM | 500 to 1000 nM | – | – | 1000 to 10000 nM | 1000 to 10000 nM | –
Cc1ccc(NC(=O)c2cc(C(F)(F)F)cnn2)cc1-c1ccnc(-c2ccnc(NC(=O)C3CNCC3(F)F)c2)c1 (stereo not drawn) [Example 92, N-[3-[2-[2-[(4,4-difluoropyrrolidine-3-carbonyl)amino]-4-pyridyl]-4-pyridyl]-4-methyl-phenyl]-5-(trifluoromethyl)pyridazine-3-carboxamide] | < 100 nM | < 100 nM | 100 to 500 nM | 100 to 500 nM | – | – | 500 to 1000 nM | 500 to 1000 nM | –
CC(=O)Nc1cc(-c2cc(-c3cc(NC(=O)c4cc(C(F)(F)F)cnn4)ccc3C)ccn2)ccn1 [Example 93] | < 100 nM | < 100 nM | – | – | 100 to 500 nM | < 100 nM | – | 1000 to 10000 nM | < 100 nM
Cc1ccc(NC(=O)c2cc(C(F)(F)F)cnn2)cc1-c1ccnc(-c2ccnc(NC(=O)C3CN(C)CC3(F)F)c2)c1 (stereo not drawn) [Example 94, N-(3-(2′-(4,4-difluoro-1-methylpyrrolidine-3-carboxamido)-[2,4′-bipyridin]-4-yl)-4-methylphenyl)-5-(trifluoromethyl)pyridazine-3-carboxamide] | 100 to 500 nM | < 100 nM | 500 to 1000 nM | 100 to 500 nM | – | – | 1000 to 10000 nM | 1000 to 10000 nM | –
CCNc1cc(-c2cc(-c3cc(NC(=O)c4cc(C(F)(F)F)cnn4)ccc3C)ccn2)ccn1 [Example 95] | 100 to 500 nM | 100 to 500 nM | 100 to 500 nM | 100 to 500 nM | – | – | 100 to 500 nM | 500 to 1000 nM | –
Cc1ccc(NC(=O)c2cc(C)c(C)nn2)cc1-c1ccnc(-c2ccnc(NC(=O)C3CC3)c2)c1 [Example 97] | < 100 nM | < 100 nM | 1000 to 10000 nM | 1000 to 10000 nM | – | – | 1000 to 10000 nM | 1000 to 10000 nM | –
Cc1ccc(NC(=O)c2cc3c(nn2)CCC3)cc1-c1ccnc(-c2ccnc(NC(=O)C3CC3)c2)c1 [Example 98] | < 100 nM | < 100 nM | 1000 to 10000 nM | 1000 to 10000 nM | – | – | 1000 to 10000 nM | 1000 to 10000 nM | –

The next lines start with results.

IC50 [1] | IC50 [2] | IC50 (MiaPaca-2 cells; [3]) | IC50 (HCT-116 cells; [4]) | IC50 (MiaPaca-2 cells; MiaPaca-2 cells) | IC50 (HCT-116 cells; HCT-116 cells) | Compound | IC50 (HPAF-II cells; Homo sapiens, HPAF-II) | IC50 (Pa16c cells) | IC50 (HPAF-II cells)
< 100 nM | < 100 nM | 1000 to 10000 nM | < 100 nM | – | – | Cc1ccc(NC(=O)c2cncc(C(F)(F)F)n2)cc1-c1cncc(-c2cc(NC(=O)C3CC3)ncn2)c1 [Example 61] | 1000 to 10000 nM | 1000 to 10000 nM | –
< 100 nM | < 100 nM | 100 to 500 nM | < 100 nM | – | – | Cc1ccc(NC(=O)c2cc(C(C)(C)F)cnn2)cc1-c1cncc(-c2cc(NC(=O)C3CC3)ncn2)c1 [Example 62] | < 100 nM | 500 to 1000 nM | –
< 100 nM | < 100 nM | 100 to 500 nM | < 100 nM | – | – | Cc1ccc(NC(=O)c2cc(C(C)(F)F)cnn2)cc1-c1cncc(-c2cc(NC(=O)C3CC3)ncn2)c1 [Example 63] | 100 to 500 nM | 500 to 1000 nM | –
< 100 nM | < 100 nM | 500 to 1000 nM | 100 to 500 nM | – | – | Cc1ccc(NC(=O)c2cc(C(C)C)cnn2)cc1-c1cncc(-c2cc(NC(=O)C3CC3)ncn2)c1 [Example 64] | 100 to 500 nM | 100 to 500 nM | –
< 100 nM | < 100 nM | 100 to 500 nM | < 100 nM | – | – | Cc1ccc(NC(=O)c2cncc(C(C)(C)F)c2)cc1-c1cncc(-c2cc(NC(=O)C3CC3)ncn2)c1 [Example 68] | < 100 nM | 500 to 1000 nM | –
< 100 nM | < 100 nM | 1000 to 10000 nM | 100 to 500 nM | – | – | Cc1ccc(NC(=O)c2cc(C3CC3)cnn2)cc1-c1cncc(-c2cc(NC(=O)C3CC3)ncn2)c1 [Example 69] | 500 to 1000 nM | 1000 to 10000 nM | –
< 100 nM | < 100 nM | 100 to 500 nM | 100 to 500 nM | – | – | Cc1ccc(NC(=O)c2ccc(C(F)F)nc2)cc1-c1ccnc(-c2ccnc(NC(=O)C3CC3)c2)n1 [Example 70] | 100 to 500 nM | 1000 to 10000 nM | –
< 100 nM | < 100 nM | – | – | 500 to 1000 nM | 100 to 500 nM | CC(=O)Nc1cc(-c2cncc(-c3cc(NC(=O)c4cc(C(F)(F)F)cnn4)ccc3C)c2)ncn1 [Example 71] | – | 1000 to 10000 nM | 500 to 1000 nM
< 100 nM | < 100 nM | 500 to 1000 nM | 100 to 500 nM | – | – | Cc1ccc(NC(=O)c2ccc(C(F)(F)F)nc2)cc1-c1cncc(-c2ccnc(NC(=O)C3CC3)c2)c1 [Example 72] | 500 to 1000 nM | 1000 to 10000 nM | –
< 100 nM | < 100 nM | 1000 to 10000 nM | 1000 to 10000 nM | – | – | Cc1ccc(NC(=O)c2ccc(C(F)(F)F)nc2)cc1-c1cncc(-c2cc(NC(=O)C3CC3)ncn2)c1 [Example 75] | 1000 to 10000 nM | 1000 to 10000 nM | –
< 100 nM | < 100 nM | – | – | 1000 to 10000 nM | 1000 to 10000 nM | COC(=O)Nc1cc(-c2cncc(-c3cc(NC(=O)c4ccc(C(F)(F)F)nc4)ccc3C)c2)ncn1 [Example 76] | – | 1000 to 10000 nM | 1000 to 10000 nM
< 100 nM | < 100 nM | 500 to 1000 nM | 100 to 500 nM | – | – | Cc1ccc(NC(=O)c2cncc(C(F)(F)F)c2)cc1-c1ccnc(-c2ccnc(NC(=O)C3CC3)c2)c1 [Example 78] | 100 to 500 nM | 1000 to 10000 nM | –
< 100 nM | < 100 nM | 100 to 500 nM | 100 to 500 nM | – | – | Cc1ccc(NC(=O)c2ccc(C(C)(F)F)nc2)cc1-c1ccnc(-c2ccnc(NC(=O)C3CC3)c2)c1 [Example 80] | 100 to 500 nM | 100 to 500 nM | –
< 100 nM | < 100 nM | 500 to 1000 nM | 100 to 500 nM | – | – | Cc1ccc(NC(=O)c2cncc(C(C)(F)F)c2)cc1-c1ccnc(-c2ccnc(NC(=O)C3CC3)c2)c1 [Example 82] | 500 to 1000 nM | 1000 to 10000 nM | –
< 100 nM | < 100 nM | 1000 to 10000 nM | 1000 to 10000 nM | – | – | Cc1ccc(NC(=O)c2cncc(C(F)(F)F)n2)cc1-c1ccnc(-c2ccnc(NC(=O)C3CC3)c2)c1 [Example 84] | 1000 to 10000 nM | 1000 to 10000 nM | –
< 100 nM | < 100 nM | 1000 to 10000 nM | 1000 to 10000 nM | – | – | Cc1ccc(NC(=N)c2cc(C3CC3)cnn2)cc1-c1ccnc(-c2ccnc(NC(=O)C3CC3)c2)c1 [Example 87] | 1000 to 10000 nM | 1000 to 10000 nM | –
< 100 nM | < 100 nM | 100 to 500 nM | 100 to 500 nM | – | – | CNCC(=O)Nc1cc(-c2cc(-c3cc(NC(=O)c4cc(C(F)(F)F)cnn4)ccc3C)ccn2)ccn1 [Example 88] | 100 to 500 nM | 1000 to 10000 nM | –
